Series [1] addresses T1, human myoglobin (Homo sapiens, UniProt P02144).
T1 construct: purchased Sigma Aldrich M6036; host or cells: human cardiac
T1 sequence (P02144 1-154): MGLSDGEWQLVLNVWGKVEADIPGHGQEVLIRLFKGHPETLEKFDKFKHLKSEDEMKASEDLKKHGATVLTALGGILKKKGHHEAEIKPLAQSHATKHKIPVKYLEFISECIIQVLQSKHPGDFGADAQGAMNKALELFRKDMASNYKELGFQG
Nature of the series: Native mass spectrometry of myoglobin reactivity. It is filed as binding. To be noted: myoglobin 1 µM, compound 5 µM and 20 µM, pH 7.5, 30 minutes. Here is the method: Protein samples were buffer-exchanged into 200 mM ammonium acetate (pH 7.5) through dialysis prior to native MS analyses. These samples were directly introduced into the mass spectrometer using gold-coated capillary needles prepared in-house.[63] Data were collected on a Q Exactive UHMR hybrid quadrupole-Orbitrap mass spectrometer (Thermo Fisher) with positive polarity. The instrument parameters used for MS spectra collection were the following: capillary voltage, 1.2 kV; scan range from 1000 to 20,000 m/z; HCD collision energy, 0–100 V; source fragmentation, 0 V; in-source trapping, 0 V. The ion transfer optics was set as follows: injection flatapole, 5 V; interflatapole lens, 4 V; bent flatapole, 2 V; transfer multipole, 0 V. The resolution of the instrument was 17,500 at m/z = 200 (transient time of 64 ms), the nitrogen pressure in the HCD cell was maintained at approximately 4 × 10^–10 mbar, and the source temperature was kept at 100 °C. The noise level was set at 3 rather than the default value of 4.64. Calibration of the instruments was performed using 10 mg/mL solution of cesium iodide in water. Data were analyzed using Xcalibur 3.0 (Thermo Scientific), NaViA,[64] and UniDec software packages.[65]

The target of series [2] is NOX2 (Homo sapiens, UniProt P04839). Kind of series: Human NOX2 isolated membranes, MCLA assay. It is filed as biochemical. More on the design: NOX2 was expressed as native protein in X-CGD PLB-985 cells transduced with the RD114 pseudotyped MFGS-NOX2 vector; expressed in transfected cells; host or cells: X-CGD PLB-985 cells transduced with MFGS-NOX2; isolated membranes; Cytosolic proteins made in E. coli. To be noted: for IC50: membrane-embedded, 240 μM NADPH, read-out: IC50 on human NOXs, NOX2 (MCLA). Here is the method:
IC50 determinations were performed as described, with the same aforementioned modifications for covalent inhibition. Briefly, 20 μg of NOX2-p22^phox membranes was added to a reaction mix with a 65 mM sodium phosphate buffer (pH 7.0), 0.5 μM FAD, 130 μM LiDS, 160 nM p67^phox, p47^phox, Rac1 Q61L, and 1 μM MCLA or 200 μM bovine cytochrome c. The estimated final protein concentration based on the heme’s absorbance was 60 nM. Compounds were incubated for 1 h at 25 °C, at varying concentrations. The reaction started by adding 240 μM NADPH, and measurements were taken by using a GloMax plate reader (Promega; MCLA) or a Cary 100 UV–vis spectrophotometer (Varian; cytochrome c).

Series [3] concerns BV2 cells. Kind of series: qRT-PCR of iNOS, IL-1β and IL-6 transcripts in BV2 cells. Format: cell-based, murine. As to the method: BV2 murine microglial cells were cultured in DMEM supplemented with 10% heat-inactivated FBS, 100 IU/mL penicillin G, […] streptomycin, and […] amphotericin B and grown at 37 °C in 5% CO2 and a humidified atmosphere. […]
BV2 cells were lysed in a Trizol reagent for isolation of RNA. A reverse transcription reaction was performed in a thermocycler (MJMini personal thermal cycler; Biorad) using an IScript Reverse Transcription Supermix (Biorad) according to the manufacturer’s protocol, under the following conditions: incubation at 25 ° C for 5 min, reverse transcription at 42 ° C for 30 min, and inactivation at 85 ° C for 5 min. Real-time PCR (rtPCR) was carried out in an I-Cycler IQ Multicolor rtPCR detection system (Biorad) using a SsoFast EvaGreen Supermix (Biorad) according to the manufacturer’s instructions. The PCR protocol consisted of 40 cycles of denaturation at 95 ° C for 30 s and annealing/extension at 60 ° C for 30 s. For quantification analysis, the comparative threshold cycle (Ct) method was used. The Ct values from each gene were normalized to the Ct value of GAPDH in the same RNA samples. Relative quantification was performed using the 2^–ΔΔCt method (Schmittgen and Livak, 2008) and expressed as a fold change in arbitrary values. Primers used are as follows: • iNOS fw: […]; rev: […]. • IL-1β fw: […]; rev: […]. • IL-6 fw: […]; rev: […].
(Quantitative PCR measures a nucleic acid by following its amplification.)

The target in series [4] is T2, human MAOB (Homo sapiens, UniProt P27338).
T2 construct: made in house; host or cells: Pichia pastoris
T2 sequence (P27338 1-520): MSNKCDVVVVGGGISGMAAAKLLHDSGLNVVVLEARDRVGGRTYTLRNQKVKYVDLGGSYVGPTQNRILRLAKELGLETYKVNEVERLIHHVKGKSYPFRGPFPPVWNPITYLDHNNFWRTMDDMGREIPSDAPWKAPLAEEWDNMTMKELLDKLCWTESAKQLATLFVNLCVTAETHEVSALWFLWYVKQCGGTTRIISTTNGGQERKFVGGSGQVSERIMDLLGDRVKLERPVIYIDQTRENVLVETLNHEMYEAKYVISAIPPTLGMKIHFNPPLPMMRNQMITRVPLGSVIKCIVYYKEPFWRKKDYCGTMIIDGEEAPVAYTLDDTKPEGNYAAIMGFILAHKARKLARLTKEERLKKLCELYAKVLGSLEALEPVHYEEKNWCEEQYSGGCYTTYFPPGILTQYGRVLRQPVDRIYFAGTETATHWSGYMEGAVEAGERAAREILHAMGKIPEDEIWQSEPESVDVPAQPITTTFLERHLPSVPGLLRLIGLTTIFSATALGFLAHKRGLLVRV
Nature of the series: Spectrophotometric monitoring of MAOB flavin covalent modification. It is filed as binding. Here is the method:
IC50 values on human MAOA and human MAOB were determined using the Amplex Red/horseradish peroxidase coupled assay. […] Measurements were performed using a ClarioStar plate reader (excitation 572 nm and emission 583 nm) (BMG Labtech). IC50 values were obtained by fitting the percentage of inhibition versus log(inhibitor concentration) using GraphPad software 7.0. The covalent modification of the flavin upon the reaction with the propargylamine-containing inhibitors was monitored spectrophotometrically using a diode array UV/visible spectrophotometer (Agilent Technologies). […] The cofactor covalent modification was monitored over time following the shift of the enzyme-bound flavin (peaks at 370 and 456 nm) to 410 nm (ε410 = 23,500 M^–1 cm^–1) (Figure S10).

[5] abbreviates: 10 μM, LPS/IFN-γ, 48 h compound treatment.

The values below come from article PMC11956017, “Design of Benzyl-triazolopyrimidine-Based NADPH Oxidase Inhibitors Leads to the Discovery of a Potent Dual Covalent NOX2/MAOB Inhibitor” (Journal of Medicinal Chemistry, 2025).

“Also recorded” adds a separate entry of the source.

In general, IC50 refers to the concentration needed to halve the response being measured.

As for `C#CCN(C)Cc1ccc(Cn2nnc3c(Sc4nc5ccccc5o4)ncnc32)cc1` [Compound 9a, N-(4-((7-(Benzo[d]oxazol-2-ylthio)-3H-[1,2,3]triazolo[4,5-d]pyrimidin-3-yl)methyl)benzyl)-N-methylprop-2-yn-1-amine], in series [1], the “adduct formation with myoglobin” value is listed as “no adduct formation was detected; also recorded: did not bind”. Besides, the “potency against NOX2 relative to VAS2870 (more powerful)” value in series [2] (NOX2 membranes) came to 2 fold. For the same compound, the half-maximal inhibitory concentration (IC50) in series [2] came out at 567 ± 200 nM. Moreover, in series [3] (setting [5]), the “decrease in IL-1β mRNA level” value was 4 fold, the “decrease in IL-6 mRNA level” value is on record as 4 fold and the “decrease in iNOS mRNA level” value is reported as “over 10 fold”. The “effects on iNOS, IL-1β and IL-6 mRNA without inhibitor pretreatment” value in series [3] (cells pre-stimulated with LPS/IFN-γ for 24h, then 10 µM compound for 24 h) is recorded as “negligible”. Moreover, the “covalent flavin adduct with MAOB (absorbance shift to 410 nm)” value in series [4] (5-fold molar excess over 20 μM protein) is “formation of a covalent N-methyl-N-propargylamine-flavin adduct”. In series [4] (after 30 min of incubation), the “MAOB cofactor modified at the final time point” value worked out at 18.4 µM and the “calculated inhibited fraction of MAOB” value is 91.8%.

As to `CCCNC(=O)c1ccc(Cn2nnc3c(Sc4nc5ccccc5o4)ncnc32)cc1` [Compound 8a, (4-((7-Benzo[d]oxazol-2-yl-thio)-3H-[1,2,3]triazole[4,5-d]pyrimidin-3-yl)methyl)-N-(propyl)benzamide], the IC50 in series [2] is 2800 ± 50 nM.

For the compound `C#CCNC(=O)c1ccc(Cn2nnc3c(Sc4nc5ccccc5o4)ncnc32)cc1` [Compound 8b, (4-((7-Benzo[d]oxazol-2-yl-thio)-3H-[1,2,3]triazole[4,5-d]pyrimidin-3-yl)methyl)-N-(prop-2-in-1-yl)benzamide], the IC50 in series [2] stood at 17300 ± 2600 nM.
